Reference: publication PMC5107945, “Abscinazole-E3M, a practical inhibitor of abscisic acid 8′-hydroxylase for improving drought tolerance” (Scientific Reports, 2016)
pIC50: −log10 of the molar value.

What was measured:
[1] = test system: endogenous ABA level; test: Endogenous ABA levels in Arabidopsis; assay type: in vivo; conditions: Arabidopsis four-week-old plants, 50 μM, overnight
Description: The effects of (-)-Abz-[…] were also determined relative to stomatal apertures. Arabidopsis grown in soil pots underwent moderate drought stress under the optimal growth conditions of 22 °C and 60% relative humidity. Under these growth conditions, the leaf surface temperature of the mock-treated controls was 19.5 °C, which was lower than the surrounding atmospheric temperature because of transpirational water loss (Fig. 6a,b)[30]. […] Finally, we examined the effects of (-)-Abz-[…] on drought tolerance under more practical conditions. Three-week-old Arabidopsis were sprayed with an aqueous solution containing 50 μM (-)-Abz-[…]. Water was not supplied for 12 days, and then the plants were rehydrated. […] We also tested the effects of (-)-Abz-[…] on a monocot crop, maize, to evaluate whether (-)-Abz-[…] affected stomatal movement and enhanced ABA response across plant species. […] Thus, the effects of (-)-Abz-[…] were not restricted to the model plant Arabidopsis. Figure 6 Effects of (-)-Abz-[…] on Arabidopsis drought tolerance. (a,b) Three-week-old plants were treated with 50 μM of (-)-Abz-[…] and incubated overnight at 22 °C with 60% relative humidity. Thermal images of plants were obtained using a thermal imaging camera ([…], Nippon Avionics Co., Ltd.), and the average temperatures on leaf surfaces were determined with NS9200 software (n = 5, error bars represent s.d.). […]

[2] = molecular target: T1, Rice recombinant CYP701A6 (ent-kaurene oxidase) (Oryza sativa subsp. japonica, UniProt Q5Z5R4); test: CYP701A6 inhibition assay (formation of end product KA); assay type: biochemical; conditions: Rice recombinant CYP701A6 expressed in insect cells; 10 μM ent-kaurene; formation of KA; read-out: CYP701A IC50
T1 construct: made in house; host or cells: insect cells (baculovirus vector)
T1 sequence (Q5Z5R4 1-505): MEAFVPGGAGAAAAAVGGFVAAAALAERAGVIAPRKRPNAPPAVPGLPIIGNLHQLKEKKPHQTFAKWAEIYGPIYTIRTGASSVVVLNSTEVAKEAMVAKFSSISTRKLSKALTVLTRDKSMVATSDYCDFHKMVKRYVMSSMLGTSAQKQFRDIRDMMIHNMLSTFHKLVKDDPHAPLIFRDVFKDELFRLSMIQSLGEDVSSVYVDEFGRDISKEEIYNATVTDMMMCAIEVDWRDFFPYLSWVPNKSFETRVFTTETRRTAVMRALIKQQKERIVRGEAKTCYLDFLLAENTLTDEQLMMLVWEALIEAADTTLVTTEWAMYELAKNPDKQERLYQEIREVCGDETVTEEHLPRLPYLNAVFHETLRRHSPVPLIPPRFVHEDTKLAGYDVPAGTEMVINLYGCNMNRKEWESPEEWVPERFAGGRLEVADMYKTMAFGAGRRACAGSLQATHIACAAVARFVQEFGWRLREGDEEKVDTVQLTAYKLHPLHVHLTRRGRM
Description: To evaluate the enzymatic selectivity between CYP707A and CYP701A, we examined the inhibitory activity against recombinant rice containing CYP701A6 expressed in insect cells using a baculovirus vector. This enzyme catalyses all three steps to KA via the corresponding alcohol and aldehyde, and consequently, the kinetic analysis is very complicated. Therefore, we evaluate the IC50 value for the formation of the end product, KA, instead of the KI value.
Reaction mixtures, containing 0.058 μM of […] microsomes, ATR2 (0.115 U), ent-kaurene (final concentration of 10 μM), inhibitors (0 for control, 1.5–1,500 μM in 8 μL dimethylformamide), and 20 mM NADPH in 500 mM potassium phosphate buffer (pH 7.4), were incubated at 30 °C for 10 min. Reactions were initiated by adding NADPH and stopped by the addition of 100 μL of 1 M HCl. Abietic acid, as the internal standard, was then added to the reaction product, which was extracted with EtOAc (400 μL × 3). The organic phase was dried over Na2SO4 and concentrated in vacuo. To derivatize the reaction products, MeOH (50 μL) and trimethylsilyldiazomethane (2 M in 5 μL hexane) were added, and the reaction mixture was incubated at room temperature for 10 min. The organic solvent was removed under N2, and samples were adjusted to 150 μL with hexane before a gas chromatography-mass spectrometry analysis (QP2010-plus; Shimadzu Corp., Kyoto, Japan). The conditions were as follows: the column was DB-5ms (0.25 mm id × 15 m, 0.25 μm film thickness; Agilent J & W, Folsom, CA, USA), the carrier gas was He, the flow rate was 1.65 mL min^−1, the injection port temperature was 280 °C, splitless injection, and the programmed column temperature was a step gradient of 80 °C for 1 min, 80–200 °C at 18 °C min^−1, 200–210 °C at 2 °C min^−1, 210–280 °C at 30 °C min^−1, and then 280 °C for 3 min. The KA content was calculated from the area ratio of molecular and fragment ions of methyl KA (m/z 316, 273, and 257) to those of methyl abietate (m/z 316 and 256). The inhibition ratio was defined as [(A − B)/A] × 100, where A = the amount of methyl KA/methyl abietate when the inhibitor was absent from the reaction mixture (control), and B = the amount of methyl KA/methyl abietate when the inhibitor was present. All of the tests were conducted at least three times.

## abscinazole-E3M [(−)-6]
[1]
  Endogenous ABA content: significantly increase the ABA content
[2]
  pIC50: 6.11
